Measured values taken from publication PMC9612231, “Antileishmanial Anthracene Endoperoxides: Efficacy In Vitro, Mechanisms and Structure-Activity Relationships” (Molecules, 2022).

Assays:
[1] = tested on: Leishmania tarentolae promastigotes (LtP); test: LtP viability combination assay with NAC or PIH; assay type: cell-based; details: 2 × 10^6 LtP/mL; for Change of IC50 value in LtP by addition of PIH: 50 µM PIH; for Change of IC50 value in LtP by addition of NAC: 2 mM NAC
Source text: Based on the findings from chemical test systems, we studied the actual activation of these EP compounds in LtP. For this purpose, we used the established viability assays for Leishmania and studied how IC50 values were changed by the presence of the typical radical scavenger N-acetyl cysteine (NAC) or the iron chelator for low molecular iron pyridoxal isonicotinoyl hydrazine (PIH). We expressed the changes of the IC50 values in the presence of these additional compounds in percent, referring to the original IC50 values in LtP set to 100% (Figure 8). […] Likewise, in the presence of the iron chelator PIH, the IC50 values of most EP in LtP shifted to higher values.
Assay medium of YEM (20.7 g/L yeast extract powder, 1.2 g/L K2HPO4, 0.2 g/L KH2PO4, 2.9 g/L glucose, pH 7.4) and PBS (1:1, v/v), 25,000 U/L penicillin, 25 mg/L streptomycin, and 7.7 µM hemin was prepared. Aliquots of 200 µL of this medium and 2 × 10^6 LtP/mL (where required) were distributed in non-treated cell culture 96-well plates. Compounds (dissolved in DMSO) were added with starting concentrations of 25 µM (Pen) or 200 µM (AcEP/Ac), and then, serial dilutions were carried out resulting in a set of concentrations (25, 5, 1, 0.2, 0.04, and 0.008 µM) or (200, 40, 8, 1.6, 0.32, and 0.064 µM). For each compound concentration, at least triplicates on each plate were performed. After incubation of the plates at 27 °C for 48 h, 50 µL of resazurin solution (final concentration in wells 20 µM) was added to each well and after 4 h of incubation, the fluorescence was measured at 560 nm excitation and 590 nm emission using a plate reader (Perkin Elmer EnSpire, Rodgau, Germany) (adapted from). Combination assays for viability in the presence of PIH and NAC were performed the same way. However, one half of the plate was filled with YEM/PBS with 2 × 10^6 LtP/mL, and the other half of the plate was filled with YEM/PBS with 2 × 10^6 LtP/mL supplemented with non-toxic concentrations of PIH (50 µM) or NAC (2 mM), so that for each plate, two compounds were tested with and without the presence of PIH or NAC. All tests were repeated at least on four different weeks of cultivation.

[2] = Formation of the xylenol orange/Fe3+ complex by EP; details: for Log10 (Formation Rate) / XO/Fe^3+ Formation Rate: AcEP and 250 µM FeSO4 in methanol/H2O (9:1); for XO/Fe^3+ Formation Rate: mean ± SD of 3 experiments
Source text: In subsequent experiments, we explored the activation of EP and possible cellular consequences of these compounds in Leishmania. In a chemical system, we tested how fast EP react with iron (II) and, therefore, lead to the activation of these compounds. Resulting iron (III) was detected as complex with xylenol orange (XO, Figure 3). The reaction rate of the EP stretched across two magnitudes of orders (Table 3). On the first view, there is no direct link between the activation rates and the efficiency of the compounds against Leishmania.
XO (125 µM) and butylated hydroxytoluene (4 mM) were dissolved in MeOH/H2O (9:1). FeSO4 (25 mM) in 2.5 M H2SO4 was prepared immediately before use (final concentration of 250 µM FeSO4 in the color reagent). An aliquot of 100 µL EP solution (final concentration of 100 µM) was transferred into a disposable cuvette (BRAND, Wertheim, Germany), and 1 mL of the color reagent was added. The EP that reacted slower were incubated for 0, 30, 60, and 90 min at 25 °C. The EP that reacted faster were measured every 5 s over 5 min. At these time points, the OD difference of the sample at 560 nm and 650 nm was determined using a MS1501 UV–VIS diode array spectrophotometer (Shimadzu, Kyoto, Japan). As reference, a mixture of MeOH/H2O (9:1) was used. The slope of the reaction rate was calculated using an extinction coefficient of 1.5 × 10^4 M^−1 cm^−1.

[3] = tested on: LtP; test: Superoxide radical formation in LtP by the EPR/CMH method; assay type: cell-based, Leishmania tarentolae; details: 20 min at 25 °C; for Superoxide formation in LtP (CMH oxidation), in words: 100 µM compound
Source text: Since mitochondrial inhibition can be triggered by secondary damage in the respective cells, for example, by superoxide radicals, we studied the formation of superoxide radicals in LtP by the EPR/hydroxyl-3-methoxycarbonyl-2,2,5,5-tetramethylpyrrolidine hydrochloride (CMH) method (Figure 10). […] In the presence of antimycin A (AA, an inhibitor of mitochondrial complex III), the superoxide radical formation in LtP is increased by more than 150% (Figure 11).
An aliquot of the LtP cell culture equivalent to 5 × 10^8 LtP was transferred into a 1.5 mL Eppendorf tube and was centrifuged (Hettich Universal 16, 20 °C, 2000× g, 10 min). After removal of the supernatant, the cell pellet was re-suspended in 1 mL PBS and centrifuged again and the supernatant discarded. The cell pellet was re-suspended in 1 mL of PBS with 15 mM glucose (PBS-gluc), giving a final cell density of 5 × 10^8 LtP/mL. AcEP/Ac compounds were added (100 µM final concentration) to aliquots of 50 µL of this cell suspension in 1.5 mL Eppendorf tubes and incubated for 20 min at 25 °C. Then, DFO (100 μM final concentration), DTPA (25 μM final concentration), and detection agent CMH (400 µM final concentration) were added to the aliquots before measurement. Samples containing only buffer (PBS-gluc) or only LtP (in PBS-gluc) were used as negative controls, while samples containing 20 μM AA were used as positive control. An aliquot of 17 µL suspension was aspirated into a PTFE tube (ø 0.7 mm). The tube was folded into a quartz tube (ø 4 mm outer diameter) and then transferred to the MD5 resonator of the EPR spectrometer. The measurement was started using following parameters: microwave frequency 9.682 GHz; microwave power 20 mW, modulation frequency 100 kHz; modulation amplitude 1 G; time constant 0.82 s; center field 3448 G; sweep width 100 G; scan time 84 s; attenuation 70 dB; separate scans 5. Based on a calibration curve with carboxy proxyl (CP^●) changes of the peak-to-peak intensity of CM^● spectra were converted to CMH oxidation rates (superoxide radical generation).

## C[n+]1ccc(C23OOC(c4cc[n+](C)cc4)(c4ccccc42)c2ccccc23)cc1 [Compound 1062MeAcEP]
[1]
  Change of IC50 value in LtP by addition of PIH: increase of IC50 values
  Change of IC50 value in LtP by addition of NAC: higher IC50 values in the presence of the thiol NAC
[2]
  Log10 (Formation Rate): 2.78
  XO/Fe^3+ Formation Rate: 609 ± 27 nmol/min

## c1ccc(C23OOC(c4ccccc4)(c4ccccc42)c2ccccc23)cc1 [DPAcEP]
[1]
  Change of IC50 value in LtP by addition of PIH: increase of IC50 values
  Change of IC50 value in LtP by addition of NAC: did not respond, but rather displayed even lower IC50 values
[2]
  Log10 (Formation Rate): 2.83
  XO/Fe^3+ Formation Rate: 677 ± 86 nmol/min

## CC(C)(C)c1ccc2c(-c3cccnc3)c3ccccc3c(-c3cccnc3)c2c1 [mPyBuAc]
[3]
  Superoxide formation in LtP (CMH oxidation), in words: most effective in boosting the superoxide production

## c1ccc(C23OOC(c4ccccn4)(c4ccccc42)c2ccccc23)nc1 [oPyAcEP]
[1]
  Change of IC50 value in LtP by addition of PIH: no increase was observed
  Change of IC50 value in LtP by addition of NAC: higher IC50 values in the presence of the thiol NAC
[2]
  Log10 (Formation Rate): 4.91
  XO/Fe^3+ Formation Rate: 81,700 ± 11,921 nmol/min

## COc1ccccc1C12OOC(c3ccccc3OC)(c3ccccc31)c1ccccc12 [oOMeAcEP]
[1]
  Change of IC50 value in LtP by addition of PIH: increase of IC50 values
  Change of IC50 value in LtP by addition of NAC: did not respond, but rather displayed even lower IC50 values
[2]
  Log10 (Formation Rate): 2.73
  XO/Fe^3+ Formation Rate: 545 ± 17 nmol/min

## CC(C)(C)c1ccc2c(c1)C1(c3cccnc3)OOC2(c2cccnc2)c2ccccc21 (stereo not drawn) [mPyBuAcEP]
[3]; 100 µM Ac/AcEP
  Increase of superoxide formation in LtP: more than 70%
[3]
  Superoxide formation in LtP (CMH oxidation), in words: most effective in boosting the superoxide production
[1]
  Change of IC50 value in LtP by addition of PIH: increase of IC50 values
  Change of IC50 value in LtP by addition of NAC: higher IC50 values in the presence of the thiol NAC
[2]
  Log10 (Formation Rate): 2.86
  XO/Fe^3+ Formation Rate: 731 ± 111 nmol/min
[2]; XO assay
  Activation by iron (II), in words: rather slow activation by iron (II)
